# In patent EP0316212B1 (priority 1987, dated 1989):
# Where two headings read alike, the source gives them in different places.
# Columns and labels:
# Cellules de rate = experiment: Proliferation of mouse spleen cells (3H-thymidine incorporation); format: cell-based, souris; details: for inhibition at 200 µg/mL: read-out: pourcentage d'augmentation (+) ou d'inhibition (-) de la prolifération
# Source text: (§1) Les anticorps utilisés sont des anticorps monoclonaux (AM) naturels (N5-12, N5-17, MO-1, 62-1, D-23) et proviennent d'hybridomes préparés par fusion des cellules de rate de souris n'ayant reçu aucune immunisation au préalable ni aucune stimulation mitogénique, avec le myélome de souris X63-Ag8. Les hybridomes TNP11 et TNP9 proviennent de fusion des cellules de rate de souris immunisées avec du Ficoll-TNP. Ils ont été maintenus en culture dans le milieu RPMI complet contenant 10% de sérum de veau foetal. Les hybridomes ont été injectés à des souris Balb/c préalablement traitées au pristane dans le but d'obtenir des ascites. Les AM ont été utilisés en tant que surnageants de culture ou en tant qu'ascites ou après isolement par chromatographie d'affinité sur une colonne de DNP-Sépharose. Ces anticorps ont été testés par test immunoenzymatique sur différents antigènes immobilisés sur des plaques de polystyrène et révélés par un anticorps anti-Ig de souris couplé à la β-galactosidase.
# (§2) Le TNP a été couplé à la sérumalbumine bovine (BSA) par la méthode de Little & Eisen : 1ml de BSA à 20mg/ml dans le tampon carbonate-bicarbonate, 0,1M, pH 9,5, est ajouté à 1ml d'une solution d'acide trinitrobenzène sulfonique à 2 mg/ml dans le même tampon. La réaction est arrêtée après 30 à 120 minutes selon la substitution voulue par élimination de l'excès de réactifs sur échangeur d'ions (Dowex 1 x 4) puis dialyse. Des préparations de BSA substituée avec soit 14 ou 30 molécules de TNP par molécule de BSA (TNP₁₄-BSA ou TNP₃₀-BSA) ont été utilisées.
# (§3) Le DNP-Glycine (DNP-Gly) et le DNP-Lysine (DNP-Lys) proviennent des Laboratoires Sigma et sont solubilisés directement dans le milieu de culture.
# (§4) Les cellules proviennent de rate ou de thymus de souris. Les souris sont tuées par dislocation cervicale et leur rate ou leur thymus prélevé stérilement sont déposés dans du milieu RPMI. Les cellules sont dissociées, lavées une fois avec du milieu puis les globules rouges sont lysés au chlorure d'ammonium (0,9%) pendant 1 minute à froid puis les cellules sont relavées dans le milieu complet.
# (§5) Le milieu de culture utilisé est du RPMI 1640 contenant du sérum de veau foetal (5%), du pyruvate de sodium (1mM), de la L-glutamine (1mM), du 2-mercaptoethanol (0,05 mM), de la pénicilline (100»g/ml) et de la streptomycine (50»g/ml).
# (§6) 2x10⁵ cellules de chaque population cellulaire ou 4x10⁵ de cellules de rate non fractionnées sont distribuées sous un volume final de 200»l dans des boîtes de culture de 96 puits à fond plat en présence ou non des différents stimulateurs (ou mitogènes)(40»g/ml de lipopolysaccharide W Salmonella typhosa 2»g/ml de concanavaline A, ou des surnageants de culture contenant les anticorps monoclonaux à différentes dilutions ou une solution de TNP-BSA à des concentrations finales allant de 200ng à 200»g/ml). Les cultures sont effectuées pendant 48 à 96 heures à 37°C dans une atmosphère de 5% de CO2.
# Six à huit heures avant la fin de la culture, 100»l de surnageant sont prélevés de chaque puits de culture afin d'être testés quant à leur contenu en anticorps. 10»l d'une solution de ³H-thymidine (activité spécifique = […]) à 50 »Ci/ml sont ajoutés à la culture qui est ensuite poursuivie. Les cellules de chaque puits sont collectées sur du papier filtre à l'aide d'un collecteur automatique et, après sèchage, les filtres sont comptés dans un liquide scintillant.
# [1] = system: EMCV (Encephalomyocarditis Virus); experiment: microbe, parasite or virus in culture; format: cell-based
# [2] = system: virus de la chorioméningite lymphocytaire (CML); experiment: organism not typed; format: cell-based; details: for % Inhibition: préincubés avec les cellules L929
# Cellules T = experiment: Proliferation of mouse T cells (3H-thymidine incorporation); format: cell-based, souris; details: for inhibition at 200 µg/mL: T-cell, read-out: pourcentage d'augmentation (+) ou d'inhibition (-) de la prolifération
# Source text: as §1, §2, §3, §4
# Les sous-populations de cellules B ou T sont ensuite séparées comme suit : • Sous-population T : les cellules T sont obtenues à partir de la population de cellules de la rate par élimination des cellules portant des Ig à leur surface (sous-population B) sur des anticorps anti-Ig de souris immobilisés soit sur des billes magnétiques (Magnogel)® soit sur des boites de Pétri. • Sous-population B : les cellules B sont obtenues après détachement mécanique des supports dur lesquels elles étaient fixées par l'intermédiaire des anticorps anti-Ig (après l'isolement des cellules T), ou après élimination de la sous-population des cellules T de la population totale des cellules de rate par un traitement avec un anticorps anti-cellules T suivi de complément de cobaye. • Thymocytes : les thymocytes sont dissociés dans le RPMI et les cellules isolées sont lavées dans le milieu complet avant d'être mises en culture.
# as §5, §6
# Six à huit heures avant la fin de la culture, 100»l de surnageant sont prélevés de chaque puits de culture afin d'être testés quant à leur contenu en anticorps. […]
# [3] = system: virus de la chorioméningite lymphocytaire (CML); experiment: organism not typed; format: cell-based; details: for % Inhibition: ajoutés après l'infection virale
# [4] = 200µg/ml, LPS* (mitogène ajouté après 48 heures avec le dérivé NP)
# [5] = 200µg/ml, conA* (mitogène ajouté après 48 heures avec le dérivé NP)
# [6] = 12 (µg/ml), LPS* (mitogène ajouté après 48 heures)
# [7] = 12 (µg/ml), conA* (mitogène ajouté après 48 heures)
# [8] = 50 (µg/ml), LPS* (mitogène ajouté après 48 heures)
# [9] = 50 (µg/ml), conA* (mitogène ajouté après 48 heures)
# [10] = 0,7 (µg/ml), conA* (mitogène ajouté après 48 heures)
# [11] = 200µg/ml, conA* (mitogène ajouté après 48 heures)
# [12] = 3 (µg/ml), conA* (mitogène ajouté après 48 heures)
molecule,measurement,setting,value
TNP-BSA,pourcentage d'augmentation (+) ou d'inhibition (-) de la prolifération,Cellules de rate; [4],+30%
same,pourcentage d'augmentation (+) ou d'inhibition (-) de la prolifération,"Cellules de rate; 200µg/ml, M (milieu seul)",+50%
same,pourcentage d'augmentation (+) ou d'inhibition (-) de la prolifération,Cellules de rate; [5],+46%
same,pourcentage d'augmentation (+) ou d'inhibition (-) de la prolifération,Cellules de rate; [6],0%
same,pourcentage d'augmentation (+) ou d'inhibition (-) de la prolifération,"Cellules de rate; 12 (µg/ml), M (milieu seul)",+10%
same,pourcentage d'augmentation (+) ou d'inhibition (-) de la prolifération,Cellules de rate; [7],+28%
same,pourcentage d'augmentation (+) ou d'inhibition (-) de la prolifération,Cellules de rate; [8],+20%
same,pourcentage d'augmentation (+) ou d'inhibition (-) de la prolifération,"Cellules de rate; 50 (µg/ml), M (milieu seul)",+30%
same,pourcentage d'augmentation (+) ou d'inhibition (-) de la prolifération,Cellules de rate; [9],+30%
same,% Inhibition,"[1]; 0,03 mg/ml",0%
same,% Inhibition,"[1]; 0,5 mg/ml",8%
same,% Inhibition,"[1]; 0,06 mg/ml",0%
same,% Inhibition,"[1]; 0,12 mg/ml",0%
same,% Inhibition,"[1]; 0,25 mg/ml",0%
same,% Inhibition,"[1]; 1,0 mg/ml",4%
same,% Inhibition,"[1]; 2,0 mg/ml",14%
same,% Inhibition,[2]; 0.12 mg/ml,0%
same,% Inhibition,[2]; 0.25 mg/ml,22%
same,% Inhibition,[2]; 0.5 mg/ml,48%
same,% Inhibition,[2]; 1 mg/ml,63%
same,pourcentage d'augmentation (+) ou d'inhibition (-) de la prolifération,"Cellules T; 0,7 (µg/ml), M (milieu seul)",0%
same,pourcentage d'augmentation (+) ou d'inhibition (-) de la prolifération,Cellules T; [10],-50%
same,pourcentage d'augmentation (+) ou d'inhibition (-) de la prolifération,"Cellules T; 200µg/ml, M (milieu seul)",+30%
same,pourcentage d'augmentation (+) ou d'inhibition (-) de la prolifération,Cellules T; [11],-50%
same,pourcentage d'augmentation (+) ou d'inhibition (-) de la prolifération,"Cellules T; 3 (µg/ml), M (milieu seul)",0%
same,pourcentage d'augmentation (+) ou d'inhibition (-) de la prolifération,Cellules T; [12],-40%
same,pourcentage d'augmentation (+) ou d'inhibition (-) de la prolifération,"Cellules T; 12 (µg/ml), M (milieu seul)",+20%
same,pourcentage d'augmentation (+) ou d'inhibition (-) de la prolifération,Cellules T; [7],-20%
same,pourcentage d'augmentation (+) ou d'inhibition (-) de la prolifération,"Cellules T; 50 (µg/ml), M (milieu seul)",+18%
same,pourcentage d'augmentation (+) ou d'inhibition (-) de la prolifération,Cellules T; [9],-25%
same,% Inhibition,[3]; 0.5 mg/ml,0%
same,% Inhibition,[3]; 1mg/ml,17%
"O=C(O)CNc1ccc([N+](=O)[O-])cc1[N+](=O)[O-] [DNP-glycine, DNP-Glycine]",inhibition at 200 µg/mL,Cellules de rate; [4],-60%
same,inhibition at 200 µg/mL,"Cellules de rate; 200µg/ml, M (milieu seul)",-64%
same,inhibition at 200 µg/mL,Cellules de rate; [5],-50%
same,pourcentage d'augmentation (+) ou d'inhibition (-) de la prolifération,Cellules de rate; [6],0%
same,pourcentage d'augmentation (+) ou d'inhibition (-) de la prolifération,"Cellules de rate; 12 (µg/ml), M (milieu seul)",-10%
same,pourcentage d'augmentation (+) ou d'inhibition (-) de la prolifération,Cellules de rate; [7],-30%
same,pourcentage d'augmentation (+) ou d'inhibition (-) de la prolifération,Cellules de rate; [8],-20%
same,pourcentage d'augmentation (+) ou d'inhibition (-) de la prolifération,"Cellules de rate; 50 (µg/ml), M (milieu seul)",-30%
same,pourcentage d'augmentation (+) ou d'inhibition (-) de la prolifération,Cellules de rate; [9],0%
same,minimal effective concentration,"[1]; Cardiovirus A, L929, 24 h, read-out: séroneutralise jusqu'à une concentration de",600 µg/mL
same,inhibition at 30 µg/mL,"[1]; Cardiovirus A, L929, 0,03 mg/ml",0%
same,inhibition at 300 µg/mL,"[1]; Cardiovirus A, L929, 0,3 mg/ml",32%
same,inhibition at 600 µg/mL,"[1]; Cardiovirus A, L929, 0,6 mg/ml",62%
same,inhibition at 70 µg/mL,"[1]; Cardiovirus A, L929, 0,07 mg/ml",0%
same,inhibition at 150 µg/mL,"[1]; Cardiovirus A, L929, 0,15 mg/ml",20%
same,inhibition at 1200 µg/mL,"[1]; Cardiovirus A, L929, 1,2 mg/ml",78%
same,inhibition at 10 µg/mL,[2]; L929,25%
same,inhibition at 30 µg/mL,[2]; L929,80%
same,inhibition at 60 µg/mL,[2]; L929,15%
same,inhibition at 120 µg/mL,[2]; L929,30%
same,inhibition at 240 µg/mL,[2]; L929,25%
same,inhibition at 480 µg/mL,[2]; L929,55%
same,pourcentage d'augmentation (+) ou d'inhibition (-) de la prolifération,"Cellules T; 0,7 (µg/ml), M (milieu seul)",+50%
same,pourcentage d'augmentation (+) ou d'inhibition (-) de la prolifération,Cellules T; [10],0%
same,pourcentage d'augmentation (+) ou d'inhibition (-) de la prolifération,"Cellules T; 3 (µg/ml), M (milieu seul)",0%
same,pourcentage d'augmentation (+) ou d'inhibition (-) de la prolifération,Cellules T; [12],-5%
same,pourcentage d'augmentation (+) ou d'inhibition (-) de la prolifération,"Cellules T; 12 (µg/ml), M (milieu seul)",0%
same,pourcentage d'augmentation (+) ou d'inhibition (-) de la prolifération,Cellules T; [7],-4%
same,pourcentage d'augmentation (+) ou d'inhibition (-) de la prolifération,"Cellules T; 50 (µg/ml), M (milieu seul)",+30%
same,pourcentage d'augmentation (+) ou d'inhibition (-) de la prolifération,Cellules T; [9],-15%
same,inhibition at 200 µg/mL,"Cellules T; 200µg/ml, M (milieu seul)",4%
same,inhibition at 200 µg/mL,Cellules T; [11],-45%
same,inhibition at 10 µg/mL,[3],10%
same,inhibition at 30 µg/mL,[3],17%
same,inhibition at 60 µg/mL,[3],34%
same,inhibition at 120 µg/mL,[3],36%
same,inhibition at 240 µg/mL,[3],54%
same,inhibition at 480 µg/mL,[3],63%
same,inhibition du virus (result in words),[3]; ajouté à la culture cellulaire après l'infection virale,peut inhiber le virus même s'il est ajouté à la culture cellulaire après l'infection virale
